Measurements from ChEMBL document CHEMBL4732179, “Design, synthesis, and bioassay of 4-thiazolinone derivatives as influenza neuraminidase inhibitors” (Eur J Med Chem, 2021).

Key:
[1] = system: Influenza A virus (A/Puerto Rico/8/1934(H1N1)); assay: Inhibition of Influenza A virus A/Puerto Rico/8/1934(H1N1) neuraminidase at 40 ug/ml using MUNANA as substrate measured after 60 mins by fluorescence assay relative to control; conditions: dose 40.0 µg/ml
[2] = Inhibition of Influenza A virus A/Puerto Rico/8/1934(H1N1) neuraminidase using MUNANA as substrate measured after 60 mins by fluorescence assay

Row | Compound | inhibition [1] [%] | IC50 [2] [µM]
1 | CC(=O)c1sc(/N=C2\NC(=O)/C(=C/c3ccc(C(=O)O)cc3)S2)nc1C | 89.1 | 31.8
2 | CCOC(=O)c1sc(NC(=S)NC(=O)/C=C/c2ccc(O)c(OC)c2)nc1C | 80.7 | 44
3 | CCOC(=O)Cc1nc(/N=C2\NC(=O)/C(=C/c3ccc(O)c(OC)c3)S2)sc1C | 95.9 | 20.3
4 | CC(=O)c1sc(/N=C2\NC(=O)/C(=C/c3ccc(O)c(O)c3)S2)nc1C | 95.8 | 25.3
5 | CC(C)(C)c1nc(/N=C2\NC(=O)CS2)sc1-n1cncn1 | 18.8 | 
6 | CCOC(=O)c1sc(/N=C2\NC(=O)/C(=C/c3cccc(OC)c3)S2)nc1C | 59 | 73.1
7 | COC(=O)c1sc(/N=C2\NC(=O)/C(=C/c3ccc(O)c(OC)c3)S2)nc1C | 88.2 | 30.4
8 | CCOC(=O)c1sc(NC(=N)N)nc1C | -1.32 | 
9 | COc1cc(/C=C/C(=O)O)ccc1O [FERULATE] |  | 140
10 | CC(C)(C)c1nc(/N=C2\NC(=O)CS2)sc1Br | 53.4 | 104
11 | CCOC(=O)c1sc(/N=C2\NC(=O)CS2)nc1C(F)(F)F | 37 | 
12 | CC(C)(C)c1nc(/N=C2\NC(=O)/C(=C/c3ccc([N+](=O)[O-])cc3)S2)sc1[N+](=O)[O-] | 46.1 | 
13 | CC(=O)c1sc(/N=C2\NC(=O)/C(=C/c3cccc(N)c3)S2)nc1C | 24.3 | 
14 | COc1cc(/C=C2\S/C(=N/c3nc(C(C)C)c(C(C)=O)s3)NC2=O)ccc1O | 97.9 | 23
15 | CC(C)(C)c1nc(/N=C2\NC(=O)/C(=C/c3cccc([N+](=O)[O-])c3)S2)sc1[N+](=O)[O-] | 52.6 | 48.2
16 | CC(C)(C)c1nc(/N=C2\NC(=O)CS2)sc1[N+](=O)[O-] | 77.8 | 41.6
17 | CCOC(=O)Cc1nc(/N=C2\NC(=O)CS2)sc1C | 43.8 | 
18 | CC(=O)Nc1ccc(/C=C2\S/C(=N/c3nc(C(C)(C)C)c([N+](=O)[O-])s3)NC2=O)cc1 | 56.7 | 75.8
19 | CCOC(=O)c1sc(/N=C2\NC(=O)/C(=C/c3ccc(O)cc3O)S2)nc1C | 75.2 | 28.3
20 | CCOC(=O)c1sc(/N=C2\NC(=O)/C(=C/c3cccc(F)c3)S2)nc1C | 54.5 | 64.4
21 | CCOC(=O)Cc1csc(/N=C2\NC(=O)/C(=C/c3cccc([N+](=O)[O-])c3)S2)n1 | 51.2 | 46
22 | COc1cccc(/C=C2\S/C(=N/c3nc(C(C)C)c(C(C)=O)s3)NC2=O)c1O | 98.5 | 28.9
23 | CCOC(=O)c1sc(/N=C2\NC(=O)/C(=C/c3ccc4c(c3)OCO4)S2)nc1C | 45 | 
24 | CCCc1nc(/N=C2\NC(=O)CS2)sc1C(=O)OC | 37 | 

Row | Compound | inhibition [1] [%] | IC50 [2] [µM]
25 | CCOC(=O)Cc1csc(/N=C2\NC(=O)CS2)n1 | 26.4 | 
26 | CC(C)(C)c1nc(/N=C2\NC(=O)/C(=C/c3ccccc3C(=O)O)S2)sc1[N+](=O)[O-] | 79.3 | 33
27 | CCOC(=O)Cc1csc(/N=C2\NC(=O)/C(=C/c3cccc(N)c3)S2)n1 | 86.4 | 35.8
28 | CCOC(=O)c1sc(/N=C2\NC(=O)/C(=C/c3ccc(O)c(O)c3)S2)nc1C | 91.3 | 27.1
29 | CCOC(=O)c1sc(/N=C2\NC(=O)/C(=C/c3cccc([N+](=O)[O-])c3)S2)nc1C | 43.5 | 
30 | CC(C)(C)c1nc(/N=C2\NC(=O)/C(=C/c3ccc(O)cc3)S2)sc1[N+](=O)[O-] | 78.3 | 38.8
31 | COc1cc(/C=C2\S/C(=N/c3nc(C(C)(C)C)c([N+](=O)[O-])s3)NC2=O)ccc1O | 77.1 | 35.2
32 | CCOC(=O)c1oc(/N=C2\NC(=O)CS2)nc1C | 34.8 | 
33 | CC(=O)c1sc(/N=C2\NC(=O)/C(=C/c3cccc([N+](=O)[O-])c3)S2)nc1C | 80.1 | 70.5
34 | COC(=O)c1sc(/N=C2\NC(=O)CS2)nc1C(C)C | 68 | 33.6
35 | CCOC(=O)c1sc(/N=C2\NC(=O)/C(=C/c3ccccc3O)S2)nc1C | 91.3 | 28.8
36 | CCOC(=O)c1sc(/N=C2\NC(=O)/C(=C/c3cc([N+](=O)[O-])cc([N+](=O)[O-])c3O)S2)nc1C | 58.5 | 39.9
37 | CCOC(=O)c1sc(NC(=S)NC(=O)/C=C/c2ccccc2)nc1C | 23.6 | 
38 | CCOC(=O)Cc1csc(/N=C2\NC(=O)/C(=C/c3ccc(O)c(OC)c3)S2)n1 | 86.2 | 28
39 | CCOC(=O)c1sc(/N=C2\NC(=O)/C(=C/c3ccccc3C(=O)O)S2)nc1C | 47 | 
40 | CCOC(=O)Cc1csc(/N=C2\NC(=O)/C(=C/c3ccc(O)cc3)S2)n1 | 93.9 | 27.7
41 | CCOC(=O)c1sc(/N=C2\NC(=O)/C(=C/c3ccccc3)S2)nc1C | 72.4 | 64.2
42 | CC(C)(C)c1nc(/N=C2\NC(=O)/C(=C/c3cccc(Cl)c3)S2)sc1[N+](=O)[O-] | 45.9 | 
43 | CC(=O)c1sc(/N=C2\NC(=O)/C(=C/c3ccc(O)cc3)S2)nc1C | 106 | 20.5
44 | CCOC(=O)c1sc(/N=C2\NC(=O)/C(=C/c3cccc(N)c3)S2)nc1C | 77.4 | 31.2
45 | CC(C)(C)c1nc(/N=C2\NC(=O)/C(=C/c3cccc(F)c3)S2)sc1[N+](=O)[O-] | 62.8 | 32.1
46 | CCOC(=O)Cc1csc(/N=C2\NC(=O)/C(=C/c3cccc(OC)c3O)S2)n1 | 93.8 | 33.9
47 | CC(C)(C)c1nc(/N=C2\NC(=O)/C(=C/c3ccccc3O)S2)sc1[N+](=O)[O-] | 83.2 | 35.4
48 | COc1cc(/C=C2\S/C(=N/c3nc(C)c(C(C)=O)s3)NC2=O)ccc1O | 100 | 26.1

Row | Compound | inhibition [1] [%] | IC50 [2] [µM]
49 | CC(C)(C)c1csc(/N=C2\NC(=O)CS2)n1 | 38 | 
50 | CCOC(=O)Cc1csc(/N=C2\NC(=O)/C(=C/c3ccc(OC)c(O)c3)S2)n1 | 82.6 | 28.8
51 | CCOC(=O)c1sc(/N=C2\NC(=O)CS2)nc1C | 78.4 | 58.8
52 | CCCCC1S/C(=N/c2nc(C)c(C(=O)OCC)s2)NC1=O (configuration not stated) | 52.1 | 65
53 | CCOC(=O)c1sc(/N=C2\NC(=O)C[Se]2)nc1C | 17.9 | 
54 | CCOC(=O)c1sc(/N=C2\NC(=O)/C(=C/c3cccc(O)c3)S2)nc1C | 79.5 | 43.6
55 | COc1cccc(/C=C2\S/C(=N/c3nc(C(C)(C)C)c([N+](=O)[O-])s3)NC2=O)c1 | 70.9 | 44.2
56 | Cc1nc(/N=C2\NC(=O)CS2)sc1C(=O)OC(C)(C)C | 74.4 | 66
57 | CCOC(=O)c1sc(/N=C2\NC(=O)C(C)S2)nc1C (configuration not stated) | 19.6 | 
58 | CC(=O)c1sc(/N=C2\NC(=O)/C(=C/c3ccc4c(c3)OCO4)S2)nc1C | 88.8 | 42.3
59 | CCOC(=O)c1sc(/N=C2\NC(=O)/C(=C/c3ccc(C(=O)O)cc3)S2)nc1C | 79.1 | 36.5
60 | CCOC(=O)c1sc(/N=C2\NC(=O)/C(=C/c3cccc(OC)c3O)S2)nc1C | 91.2 | 19.2
61 | COC(=O)c1sc(/N=C2\NC(=O)CS2)nc1C | 73.9 | 53.4
62 | CCOC(=O)c1sc(/N=C2\NC(=O)/C(=C/c3cccc(Cl)c3)S2)nc1C | 52 | 78.7
63 | COc1cccc(/C=C2\S/C(=N/c3nc(C(C)(C)C)c([N+](=O)[O-])s3)NC2=O)c1O | 57.3 | 55
64 | CC(C)(C)c1nc(/N=C2\NC(=O)CS2)sc1-n1ccnc1 | 36.8 | 
65 | Cc1nc(/N=C2\NC(=O)CS2)sc1C(=O)O | 63.9 | 97
66 | CCOC(=O)Cc1csc(/N=C2\NC(=O)/C(=C/c3ccc(C(=O)O)cc3)S2)n1 | 89.6 | 34.7
67 | CCOC(=O)c1sc(/N=C2\NC(=O)/C(=C/c3ccc(C(=O)OC)cc3)S2)nc1C | 50.1 | 94
68 | CCOC(=O)c1sc(/N=C2\NC(=O)/C(=C/c3ccc(NC(C)=O)cc3)S2)nc1C | 77.8 | 44.1
69 | CCOC(=O)c1sc(/N=C2\NC(=O)/C(=C/c3cccc(C)c3)S2)nc1C | 35.4 | 
70 | CC(=O)c1sc(/N=C2\NC(=O)CS2)nc1C | 79 | 48.7
71 | CCOC(=O)c1sc(/N=C2\NC(=O)C(c3ccccc3)S2)nc1C (configuration not stated) | 52.8 | 55.4
